Results as given in patent US20260226042A1, “C[…] H[…] PROCESSES FOR PREPARING THE SAME” (OLON S.P.A., priority 2023, published 2026).
Where a name gives a salt, the structure may show the parent alone.

Assay: Dynamic Vapor Sorption (DVS) Isotherm of Aceclidine HCl (hydration of anhydrous to hemihydrate form)
Assay type: physicochemical
Experimental: The conversion from anhydrous to hemihydrate form of Aceclidine HCl (4 mg) was analyzed by a Dynamic Vapor Sorption (DVS) Isotherm.

Compound | weight change at which the hemihydrate form formation is obtained (DVS isotherm, weight change % / relative humidity %, 4 mg sample, FIG. 4) | weight when environmental humidity content decreased (DVS, FIG. 4) | reversibility of conversion anhydrous to hemihydrate form (DVS, with decreasing relative humidity, FIG. 4) | hygroscopicity (compared to the corresponding anhydrous form) | conversion into other forms without controlled conditions (handling without humidity-controlled conditions (e.g. glove box))
CC(=O)OC1CN2CCC1CC2 (centres unmarked) [Anhydrous Aceclidine HCl, anhydrous Aceclidine HCl, reference compound] | about 4% | – | – | – | –
CC(=O)OC1CN2CCC1CC2 (centres unmarked) [Aceclidine HCl hemihydrate] | – | remained stable | irreversible | low hygroscopicity | not subjected to any conversion
